We go through six compounds from publication doi:10.1101/2023.09.25.559386v1 (biorxiv, 2023).

Test [1] concerns the target T1, D1R (Homo sapiens, UniProt P21728). Put plainly: radioligand competition binding, cell homogenates.
The target of test [2] is T1, D1R. As to the kind of experiment: BRET Gs heterotrimer dissociation. It is filed as cell-based. (Bioluminescence resonance energy transfer reports proximity on the nanometre scale.)

By Ki is commonly meant the equilibrium dissociation constant of an inhibitor or competing ligand from its target. Low values mean tighter binding, high ones weaker binding. The pKi is the Ki on a negative log10 scale, so that one unit is a factor of ten. A high value points to a small Ki.

T1 sequence (P21728 whole entry): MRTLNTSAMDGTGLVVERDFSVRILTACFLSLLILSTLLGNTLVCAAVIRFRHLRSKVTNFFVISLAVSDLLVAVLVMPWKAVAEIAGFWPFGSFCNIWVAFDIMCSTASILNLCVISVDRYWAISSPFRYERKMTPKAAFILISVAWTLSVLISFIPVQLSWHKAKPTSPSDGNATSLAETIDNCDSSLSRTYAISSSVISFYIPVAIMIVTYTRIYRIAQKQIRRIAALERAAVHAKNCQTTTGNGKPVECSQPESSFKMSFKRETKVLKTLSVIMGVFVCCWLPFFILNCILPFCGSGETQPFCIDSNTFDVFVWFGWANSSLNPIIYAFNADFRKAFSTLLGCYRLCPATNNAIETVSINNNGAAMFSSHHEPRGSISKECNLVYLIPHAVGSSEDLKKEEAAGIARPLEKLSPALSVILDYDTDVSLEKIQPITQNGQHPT

Turning to `CN1CCc2cc(Cl)c(O)cc2C(c2ccc(NS(=O)(=O)CCCNC(=O)c3ccc(-c4c5ccc(N(C)C)cc5[o+]c5cc(N(C)C)ccc45)c(C(=O)[O-])c3)cc2)C1` (racemic) [compound 23, 5-((3-(N-(4-(7-Chloro-8-hydroxy-3-methyl-2,3,4,5-tetrahydro-1H-benzo[d]azepin-1-yl)phenyl)sulfamoyl)propyl)carbamoyl)-2-(6-(dimethylamino)-3-(dimethyliminio)-3H-xanthen-9-yl)benzoate], the affinity at D1R [1], expressed as Ki, was 398 nM. Compound `CN1CCc2cc(Cl)c(O)cc2C(c2ccc(NS(=O)(=O)CCCCC(=O)NCc3cn(CCOCCNC(=O)c4ccc(-c5c6ccc(N(C)C)cc6[o+]c6cc(N(C)C)ccc56)c(C(=O)[O-])c4)nn3)cc2)C1` (racemic) [compound 25, 2-(3,6-Bis(dimethylamino)xanthylium-9-yl)-5-((2-(2-(4-((5-(N-(4-(7-chloro-8-hydroxy-3-methyl-2,3,4,5-tetrahydro-1H-benzo[d]azepin-1-yl)phenyl)sulfamoyl)pentanamido)methyl)-1H-1,2,3-triazol-1-yl)ethoxy)ethyl)carbamoyl)benzoate] had a Kb on D1R [2] of 51.3 nM. This compound also had a Ki on D1R [1] of 4.57 nM. Turning to `CN1CCc2cc(Cl)c(O)cc2C(c2ccc(NS(=O)(=O)CCCCC(=O)NCc3cn(CCOCCOCCNC(=O)c4ccc(-c5c6ccc(N(C)C)cc6[o+]c6cc(N(C)C)ccc56)c(C(=O)[O-])c4)nn3)cc2)C1` (racemic) [compound 27, 2-(3,6-Bis(dimethylamino)xanthylium-9-yl)-5-((2-(2-(2-(4-((5-(N-(4-(7-chloro-8-hydroxy-3-methyl-2,3,4,5-tetrahydro-1H-benzo[d]azepin-1-yl)phenyl)sulfamoyl)pentanamido)methyl)-1H-1,2,3-triazol-1-yl)ethoxy)ethoxy)ethyl)carbamoyl)benzoate], on D1R [1], the affinity, expressed as Ki, was 9.55 nM. `COCC[N+]1=C(/C=C/C=C2N(CCCCCC(=O)NCCCS(=O)(=O)Nc3ccc(C4CN(C)CCc5cc(Cl)c(O)cc54)cc3)c3ccc(S(=O)(=O)[O-])cc3C2(C)CCCS(=O)(=O)O)C(C)(CCCS(=O)(=O)O)c2cc(S(=O)(=O)O)ccc21` (stereo not shown) [compound 24, (E)-1-(6-((3-(N-(4-(7-Chloro-8-hydroxy-3-methyl-2,3,4,5-tetrahydro-1H-benzo[d]azepin-1-yl)phenyl)sulfamoyl)propyl)amino)-6-oxohexyl)-2-((E)-3-(1-(2-methoxyethyl)-3-methyl-5-sulfo-3-(3-sulfopropyl)-3H-indol-1-ium-2-yl)allylidene)-3-methyl-3-(3-sulfopropyl)indoline-5-sulfonate] showed a Ki on D1R [1] of 10.2 nM. On to `COCC[N+]1=C(/C=C/C=C2N(CCCCCC(=O)NCCOCCn3cc(CNC(=O)CCCCS(=O)(=O)Nc4ccc(C5CN(C)CCc6cc(Cl)c(O)cc65)cc4)nn3)c3ccc(S(=O)(=O)[O-])cc3C2(C)CCCS(=O)(=O)O)C(C)(CCCS(=O)(=O)O)c2cc(S(=O)(=O)O)ccc21` (stereo not shown) [compound 26, 2-((E)-3-((E)-1-(6-((2-(2-(4-((5-(N-(4-(7-Chloro-8-hydroxy-3-methyl-2,3,4,5-tetrahydro-1H-benzo[d]azepin-1-yl)phenyl)sulfamoyl)pentanamido)methyl)-1H-1,2,3-triazol-1-yl)ethoxy)ethyl)amino)-6-oxohexyl)-3-methyl-5-sulfonato-3-(3-sulfonatopropyl)indolin-2-ylidene)prop-1-en-1-yl)-1-(2-methoxyethyl)-3-methyl-3-(3-sulfonatopropyl)-3H-indol-1-ium-5-sulfonate], for which, at D1R [1], the affinity, expressed as Ki, was 288 nM. In the case of `COCC[N+]1=C(/C=C/C=C2N(CCCCCC(=O)NCCOCCOCCn3cc(CNC(=O)CCCCS(=O)(=O)Nc4ccc(C5CN(C)CCc6cc(Cl)c(O)cc65)cc4)nn3)c3ccc(S(=O)(=O)[O-])cc3C2(C)CCCS(=O)(=O)O)C(C)(CCCS(=O)(=O)O)c2cc(S(=O)(=O)O)ccc21` (stereo not shown) [compound 28, 2-((E)-3-((E)-1-(6-((2-(2-(2-(4-((5-(N-(4-(7-Chloro-8-hydroxy-3-methyl-2,3,4,5-tetrahydro-1H-benzo[d]azepin-1-yl)phenyl)sulfamoyl)pentanamido)methyl)-1H-1,2,3-triazol-1-yl)ethoxy)ethoxy)ethyl)amino)-6-oxohexyl)-3-methyl-5-sulfonato-3-(3-sulfonatopropyl)indolin-2-ylidene)prop-1-en-1-yl)-1-(2-methoxyethyl)-3-methyl-3-(3-sulfonatopropyl)-3H-indol-1-ium-5-sulfonate], the pKi at D1R [1] ([…] [3H]SCH-23390, […] min, room temperature) is 6.85 ± 0.07.
